In patent US7935699B2, “Pyrazole glucokinase activators” (Hoffmann-La Roche Inc., priority 2006, dated 2011):

Experiments:
[1] = molecular target: T1, Recombinant human liver GK1 (GST-GK) (Homo sapiens, UniProt P35557); test: Glucokinase in vitro assay (G6PDH-coupled, NADH at OD340); assay type: biochemical; conditions: 25° C., 5 mM D-glucose, 10% DMSO, GST-GK
T1 construct: made in house; host or cells: E. coli
T1 sequence (P35557 1-466 isoform P35557-2): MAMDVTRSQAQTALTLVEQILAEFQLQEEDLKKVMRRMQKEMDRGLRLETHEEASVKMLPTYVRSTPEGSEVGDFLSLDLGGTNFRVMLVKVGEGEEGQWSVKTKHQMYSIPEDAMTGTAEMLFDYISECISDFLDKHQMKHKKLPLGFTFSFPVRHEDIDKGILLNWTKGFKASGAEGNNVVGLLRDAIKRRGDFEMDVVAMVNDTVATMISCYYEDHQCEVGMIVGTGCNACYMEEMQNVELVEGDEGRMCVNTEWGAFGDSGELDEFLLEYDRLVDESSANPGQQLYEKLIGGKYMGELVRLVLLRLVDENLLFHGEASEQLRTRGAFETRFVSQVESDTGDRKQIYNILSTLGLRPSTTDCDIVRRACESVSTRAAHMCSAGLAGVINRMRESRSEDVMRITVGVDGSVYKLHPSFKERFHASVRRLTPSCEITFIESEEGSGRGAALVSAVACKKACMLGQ
Protocol: Glucokinase In Vitro Assay Protocol: Glucokinase (GK) was assayed by coupling the production of glucose-6-phosphate to the generation of NADH with glucose-6-phosphate dehydrogenase (G6PDH, 0.75-1 kunits/mg; Boehringer Mannheim, Indianapolis, Ind.) from Leuconostoc mesenteroides as the coupling enzyme (Scheme 2).
Recombinant human liver GK1 was expressed in E. coli as a glutathione S-transferase fusion protein (GST-GK) [Liang et al, 1995] and was purified by chromatography over a glutathione-Sepharose 4B affinity column using the procedure provided by the manufacturer (Amersham Pharmacia Biotech, Piscataway, N.J.).
The assay was conducted at 25° C. in a flat bottom 96-well tissue culture plate from Costar (Cambridge, Mass.) with a final incubation volume of 120 μL. The incubation reaction contained the following: 25 mM Hepes buffer (pH 7.1), 25 mM KCl, 5 mM D-glucose, 1 mM ATP, 1.8 mM NAD, 2 mM MgCl2, 1 μM sorbitol-6-phosphate, 1 mM dithiothreitol, test drug or 10% DMSO, 1.8 unit/ml G6PDH, and GK (see below). All organic reagents were >98% pure and were from Boehringer Mannheim with the exceptions of D-glucose and Hepes which were from Sigma Chemical Co, St Louis, Mo. Test compounds were dissolved in DMSO and were added to the incubation reaction minus GST-GK in a volume of 12 μL to yield a final DMSO concentration of 10%. This mix was pre-incubated in the temperature controlled chamber of a SPECTRAmax 250 microplate spectrophotometer (Molecular Devices Corporation, Sunnyvale, Calif.) for 10 minutes to allow temperature equilibrium and then the reaction was started by the addition of 20 μL GST-GK.
After addition of enzyme, the increase in optical density (OD) at 340 nm was monitored over a 10 minute incubation period as a measure of GK activity. Sufficient GST-GK was added to produce an increase in OD340 of 0.08 to 0.1 units over the 10 minute incubation period in wells containing 10% DMSO but no test compound. Preliminary experiments established that the GK reaction was linear over this period of time even in the presence of activators that produced a 5-fold increase in GK activity. The GK activity in control wells was compared with the activity in wells containing test GK activators, and the concentration of activator that produced a 50% increase in the activity of GK, i.e., the SC1.5, was calculated.

[2] = tested on: Diet-Induced Obese (DIO) C57BL/6J mice; test: Glucokinase activator in vivo screen, blood glucose in DIO mice; conditions: Mus musculus; 2 hours post 25 mg/kg oral dose in DIO mice, vs control; read-out: % gluc @ 2 H (% glucose lowering vs control)
Protocol: Glucokinase Activator in vivo Screen Protocol in Lean and Diet Induced Obese Mice: Lean or Diet-Induced Obese (DIO) C57BL/6J mice were orally dosed via gavage with Glucokinase (GK) activator (50 mg/kg body weight for lean mice, 25 mg/kg body weight for DIO mice) following a two hour fasting period. Blood glucose determinations were made four times during the six hour post-dose study period.
C57Bl/6J mice were obtained from Jackson Laboratory (Bar Harbor, Me.) and were maintained in a light-dark cycle with lights on from 0600-1800 hr. For studies in lean mice, the mice were received at age six weeks and given ad libitum access to control diet (LabDiet 5001 chow, PMI Nutrition, Brentwood, Mo.), and were at least age 11 weeks at the time of study. For studies in the DIO model, the mice were received at age five weeks and given ad libitum access to Bio-Serv F3282 High Fat Diet (Frenchtown, N.J.), and were at least age 16 weeks at the time of study. The experiments were conducted during the light phase of the light-dark cycle. Mice (n=6) are weighed and fasted for a two hour period prior to oral treatment. GK activators are formulated in Gelucire vehicle (Ethanol:Gelucire44/14:PEG400q.s. 4:66:30 v/w/v. For studies in lean mice, the mice were dosed orally with 5.0 μL per gram of body weight with 5 ml/kg×10.0 mg/ml formulation to equal a 50 mg/kg dose. For studies in DIO mice, the mice were dosed orally with 5.0 μL per gram of body weight with […] formulation to equal a 25 mg/kg dose. Immediately prior to dosing, a pre-dose (time zero) blood glucose reading was acquired by snipping off a small portion of the animal's tail (˜1 mm) and collecting 15 μL blood into a heparinized capillary tube for analysis. Following GK activator administration, additional blood glucose readings were taken at 2, 4 and 6 hours post dose from the same tail wound. Results were interpreted by comparing the mean blood glucose values of six vehicle treated mice with six GK activator treated mice over the six hour study duration.

SC1.5 (concentration of activator that produced a 50% increase in the activity of GK) [1]: 0.779 µM
SMILES: O=C(Nc1ccn(CCCO)n1)[C@H](CC1CCCC1)c1cccc(C(F)(F)F)c1 [Example 85, 3-Cyclopentyl-N-[1-(3-hydroxy-propyl)-1H-pyrazol-3-yl]-2(R)-(3-trifluoromethyl-phenyl)-propionamide]
change in vivo at 25 mg/kg [2]: -20.5%
